Experiment [1] has as its system SW620. Conditions: SW620 colon cell line, NIH dose response data; cited from earlier work.
The subject of experiment [2] is BT-549. Conditions: BT-549 breast cancer cell line, as determined by the NIH study; cited from earlier work.
Experiment [3] has as its system MDA-MB-231. The experiment in a line: Cell Death Detection ELISA PLUS apoptosis assay. Conditions: 1 μM AF, MDA-MB-231, 24 h or 48 h, FIG. 2A. In kind it is cell-based, Human. The method, then:
(§1) To determine the induction of apoptosis, the Cell Death Detection ELISA^PLUS Assay (Roche Cat. No. 11774425001), which determines the degree of cytoplasmic mono- and oligonucleosomes, was employed as described by the manufacturer. Briefly, breast cancer cells (5,000 cells for MCF-7; 2,000 cells for MDA-MB-231; 15,000 cells for T47D; 15,000 cells for MDA-MB-468; 5,000 cell for Hst578) were plated on 96 well plates and treated the next morning with or without or 1 uM AF for 24 h or 48 h. Cells were then concentrated by centrifugation at 200 g for 10 min at room temperature and the supernatant was discarded. Cells were lysed, and cytoplasmic fractions containing fragmented DNA were transferred to streptavidin-coated microtiter plates preincubated with a biotinylated monoclonal anti-histone antibody. The amount of fragmented nucleosomes bound to anti-histone antibody was evaluated by peroxidase-conjugated monoclonal antibody using ABTS (2,2-azino-di[3-ethylbenzthiazoline sulfonate-6-diammonium salt]) as a substrate, and read in a microplate reader at 405 nm. Non-treated cells were employed as controls.
In general terms: In an ELISA, binding on a coated surface is turned into a signal by an enzyme label.

The test system of experiment [4] is Hst578t. The experiment in a line: Cell Death Detection ELISA PLUS apoptosis assay. In kind it is cell-based, Human. Conditions: 1 μM AF, Hst578t listed as AF insensitive, 24 h or 48 h, FIG. 2A. On the procedure:
as §1

The source of these data is patent US20130177904A1, “ARNT ISOFORM 3 AS A PREDICTOR OF AMINOFLAVONE RESPONSIVENESS IN CANCER CELLS” (UNIVERSITY OF MARYLAND, BALTIMORE, priority 2010, published 2013).

For `Cc1c(F)c(N)c2c(=O)cc(-c3ccc(N)c(F)c3)oc2c1F` [AF, 5-amino-2-(4-amino-3-fluorophenyl)-6,8-difluoro-7-methylchromen-4-one], the AF sensitivity result in experiment [1] was “AF sensitive”; in experiment [2] it was “AF in-sensitive”. For the same compound, the “increase in cytoplasmic nucleosomes” value in experiment [3] and in experiment [4] was less than 2 fold throughout.
